# Assay results published in patent US11584765B2 (priority 2017, dated 2023).
# System: C57BL/6 mice
# Test: animal or person
# Format: in vivo
# Conditions: Mus musculus, sc, 0.5 h, s.c. administration, 30 min, 55° C. water, read-out: ED50 (mg/kg) at 30 min on C57BL/6 mice in Warm-water Tail-flick Test
row,Compound,ED50 [mg/kg]
1,"CCOC[C@@]1(CCc2ncccn2)CCN(C(C)(C)c2ccc(C)nc2)C1 [Compound 360, (S)-2-(2-(3-(ethoxymethyl)-1-(2-(6-methylpyridin-3-yl)propan-2-yl)pyrrolidin-3-yl)ethyl)pyrimidine]",< 10
2,"CCOC[C@@]1(CCc2ccnc(OC)c2)CCN(C(C)(C)c2ccc(C)nc2)C1.Cl [Compound 361, (S)-4-(2-(3-(ethoxymethyl)-1-(2-(6-methylpyridin-3-yl)propan-2-yl)pyrrolidin-3-yl)ethyl)-2-methoxypyridine HCl]",< 10
3,"CCOC[C@@]1(CCc2cc3c(s2)CCC3)CCN(C(C)(C)c2ccc(C)nc2)C1.Cl [Compound 362, (S)-5-(2-(3-(2-(5,6-dihydro-4H-cyclopenta[b]thiophen-2-yl)ethyl)-3-(ethoxy-methyl)pyrrolidin-1-yl)propan-2-yl)-2-methylpyridine HCl]",< 10
4,"CCOC[C@@]1(CCc2nccs2)CCN(C(C)(C)c2ccc(C)nc2)C1 [Compound 363, (S)-2-(2-(3-(ethoxymethyl)-1-(2-(6-methylpyridin-3-yl)propan-2-yl)pyrrolidin-3-yl)ethyl)thiazole]",< 10
5,"CCOC[C@@]1(CCc2ccc(F)cc2)CCN(C(C)(C)c2ccc(C)nc2)C1 [Compound 364, (S)-5-(2-(3-(ethoxymethyl)-3-(4-fluoro-phenethyl)pyrrolidin-1-yl)propan-2-yl)-2-methylpyridine]",< 10
6,"CCOC[C@@]1(CCc2ccc(F)s2)CCN(C(C)(C)c2ccc(C)nc2)C1 [Compound 365, (S)-5-(2-(3-(ethoxymethyl)-3-(2-(5-fluorothiophen-2-yl)ethyl)pyrrolidin-1-yl)propan-2-yl)-2-methylpyridine]",< 10
7,"CCOC[C@@]1(CCc2ccccc2)CCN(C(C)(C)c2ccc(C)nc2)C1 [Compound 366, (S)-5-(2-(3-(ethoxymethyl)-3-phenethylpyrrolidin-1-yl)propan-2-yl)-2-methylpyridine]",< 10
8,"CCOC[C@@]1(CCc2cc[nH]c(=O)c2)CCN(C(C)(C)c2ccc(C)nc2)C1.Cl [Compound 367, (S)-4-(2-(3-(ethoxymethyl)-1-(2-(6-methylpyridin-3-yl)propan-2-yl)pyrrolidin-3-yl)ethyl)pyridin-2(1H)-one HCl]",< 10
9,"Cc1ccc(C(C)(C)N2CC[C@@](CO)(CCc3cc[nH]c(=O)c3)C2)cn1.Cl [Compound 368, (S)-4-(2-(3-(hydroxymethyl)-1-(2-(6-methylpyridin-3-yl)propan-2-yl)pyrrolidin-3-yl)ethyl)pyridin-2(1H)-one HCl]",< 10
10,"COc1cc(CC[C@]2(CO)CCN(C(C)(C)c3ccc(C)nc3)C2)ccn1.Cl [Compound 369, (S)-(3-(2-(2-methoxypyridin-4-yl)ethyl)-1-(2-(6-methylpyridin-3-yl)propan-2-yl)pyrrolidin-3-yl)methanol HCl]",< 10
11,"CCOC[C@@]1(CCc2ccc(OC)nc2)CCN(C(C)(C)c2ccc(C)nc2)C1.Cl [Compound 370, (S)-5-(2-(3-(ethoxymethyl)-1-(2-(6-methylpyridin-3-yl)propan-2-yl)pyrrolidin-3-yl)ethyl)-2-methoxypyridine HCl]",< 10
12,"CCOC[C@@]1(CCc2cccnc2)CCN(C(C)(C)c2ccc(C)nc2)C1 [Compound 371, (S)-5-(2-(3-(ethoxymethyl)-3-(2-(pyridin-3-yl)ethyl)pyrrolidin-1-yl)propan-2-yl)-2-methylpyridine]",< 10
13,"CCOC[C@@]1(CCc2ccc(F)cn2)CCN(C(C)(C)c2ccc(C)nc2)C1 [Compound 372, (S)-2-(2-(3-(ethoxymethyl)-1-(2-(6-methylpyridin-3-yl)propan-2-yl)pyrrolidin-3-yl)ethyl)-5-fluoropyridine]",< 10
14,"CCOC[C@@]1(CCc2ccc(C)s2)CCN(C(C)(C)c2ccc(C)nc2)C1 [Compound 373, (S)-5-(2-(3-(ethoxymethyl)-3-(2-(5-methylthiophen-2-yl)ethyl)pyrrolidin-1-yl)propan-2-yl)-2-methylpyridine]",< 10
15,"CCOCC1(CCc2cc(C)sc2C)CCN(C2(c3ccc(C)nc3)CC2)C1 (stereo not drawn) [Compound 374, 5-(1-(3-(2-(2,5-dimethylthiophen-3-yl)ethyl)-3-(ethoxy-methyl)pyrrolidin-1-yl)cyclopropyl)-2-methylpyridine]",< 10
16,"CCOC[C@@]1(CCc2nccc(=O)[nH]2)CCN(C(C)(C)c2ccc(C)nc2)C1 [Compound 375, (S)-2-(2-(3-(ethoxymethyl)-1-(2-(6-methylpyridin-3-yl)propan-2-yl)pyrrolidin-3-yl)ethyl)pyrimidin-4(3H)-one]",< 10
17,CCOC[C@@]1(CCc2ccc(=O)[nH]c2)CCN(C(C)(C)c2ccc(C)nc2)C1.Cl [Compound 376],< 10
18,"CCOC[C@@]1(CCc2nccc(OC)n2)CCN(C(C)(C)c2ccc(C)nc2)C1.Cl [Compound 377, (S)-2-(2-(3-(ethoxymethyl)-1-(2-(6-methylpyridin-3-yl)propan-2-yl)pyrrolidin-3-yl)ethyl)-4-methoxypyrimidine HCl]",< 10
19,"CCOC[C@@]1(CCc2cccs2)CCN(C(C)c2cnn(C)c2C)C1 (stereo partly drawn) [Compound 378, 4-(1-((S)-3-(ethoxymethyl)-3-(2-(thiophen-2-yl)ethyl)pyrrolidin-1-yl)ethyl)-1,5-dimethyl-1H-pyrazole]",< 10
20,"CCOC[C@@]1(CCc2cccs2)CCN(C2(c3ccc(C)nc3)CC2)C1 [Compound 379, (S)-5-(1-(3-(ethoxymethyl)-3-(2-(thiophen-2-yl)ethyl)pyrrolidin-1-yl)cyclopropyl)-2-methylpyridine]",< 10

row,Compound,ED50 [mg/kg]
1,"CCOC[C@@]1(CCc2ccc(F)cn2)CCN(C(=O)c2ccc(C)nc2)C1 [Compound 380, (S)-(3-(ethoxymethyl)-3-(2-(5-fluoropyridin-2-yl)ethyl)pyrrolidin-1-yl)(6-methylpyridin-3-yl)methanone]",> 10
2,"COC[C@@]1(CCc2csc(C)c2)CCN(C(=O)c2ccc(C)nc2)C1 [Compound 381, (S)-(3-(methoxymethyl)-3-(2-(5-methylthiophen-3-yl)ethyl)pyrrolidin-1-yl)(6-methylpyridin-3-yl)methanone]",> 10
3,CCOC[C@@]1(CCc2nncn2C)CCN(C(=O)c2ccc(C)nc2)C1 [Compound 382],> 10
4,"COC[C@@]1(CCc2csc(C)c2)CCN(C(C)(C)c2ccc(C)nc2)C1 [Compound 383, (S)-5-(2-(3-(methoxymethyl)-3-(2-(5-methylthiophen-3-yl)ethyl)pyrrolidin-1-yl)propan-2-yl)-2-methylpyridine]",< 10
5,"CCOC[C@@]1(CCc2ccsc2)CCN(Cc2cnn(C)c2)C1.Cl [Compound 384, (S)-4-((3-(ethoxymethyl)-3-(2-(thiophen-3-yl)ethyl)pyrrolidin-1-yl)methyl)-1-methyl-1H-pyrazole HCl]",< 10
6,"CCOC[C@@]1(CCc2cscc2C)CCN(Cc2cccnc2)C1 [Compound 385, (S)-3-((3-(ethoxymethyl)-3-(2-(4-methylthiophen-3-yl)ethyl)pyrrolidin-1-yl)methyl)pyridine]",< 10
7,"CCOC[C@@]1(CCc2cccs2)CCN(C(C)(C)c2cnn(C)c2)C1.Cl [Compound 386, (S)-4-(2-(3-(ethoxymethyl)-3-(2-(thiophen-2-yl)ethyl)pyrrolidin-1-yl)propan-2-yl)-1-methyl-1H-pyrazole HCl]",< 10
8,"CCOC[C@@]1(CCc2ccsc2)CCN(C(C)c2cccnc2)C1 (stereo partly drawn) [Compound 387, 3-(1-((S)-3-(ethoxymethyl)-3-(2-(thiophen-3-yl)ethyl)pyrrolidin-1-yl)ethyl)pyridine]",< 10
9,"CC(C)OC[C@@]1(CCc2cccs2)CCN(Cc2cccnc2)C1 [Compound 388, (S)-3-((3-(isopropoxy-methyl)-3-(2-(thiophen-2-yl)ethyl)pyrrolidin-1-yl)methyl)pyridine]",< 10
10,"COC[C@@]1(CCc2cccs2)CCN(Cc2cccnc2)C1 [Compound 389, (S)-3-((3-(methoxymethyl)-3-(2-(thiophen-2-yl)ethyl)pyrrolidin-1-yl)methyl)pyridine]",< 10
11,"c1ccc(C2(CCc3cccs3)CCN(Cc3cccnc3)C2)nc1 (stereo not drawn) [Compound 390, 2-(1-(pyridin-3-ylmethyl)-3-(2-(thiophen-2-yl)ethyl)pyrrolidin-3-yl)pyridine]",> 10
12,"Cc1ccc(CN2CC[C@@](CCc3ccsc3)(C3CCCO3)C2)cn1.Cl (stereo partly drawn) [Compound 391, 2-methyl-5-(((3R)-3-(tetrahydrofuran-2-yl)-3-(2-(thiophen-3-yl)ethyl)pyrrolidin-1-yl)methyl)pyridine HCl]",< 10
13,"FC(F)OC[C@@]1(CCc2cccs2)CCN(Cc2cccnc2)C1 [Compound 392, (S)-3-((3-((difluorometh-oxy)methyl)-3-(2-(thiophen-2-yl)ethyl)pyrrolidin-1-yl)methyl)pyridine]",< 10
14,"CCOC1(CCc2cccs2)CCN(Cc2cccnc2)C1 (stereo not drawn) [Compound 393, 3-((3-ethoxy-3-(2-(thiophen-2-yl)ethyl)pyrrolidin-1-yl)methyl)pyridine]",> 10
15,"CCOCC1(CCc2cccs2)CN(Cc2cccnc2)C1 [Compound 394, 3-((3-(ethoxymethyl)-3-(2-(thiophen-2-yl)ethyl)azetidin-1-yl)methyl)pyridine]",> 10
16,"CCOC[C@@]1(CCc2cccs2)CCN(C2(c3cccnc3)CC2)C1 [Compound 395, (S)-3-(1-(3-(ethoxymethyl)-3-(2-(thiophen-2-yl)ethyl)pyrrolidin-1-yl)cyclopropyl)pyridine]",< 10
17,"CC(C)(c1cccnc1)N1CCC(CCc2cccs2)(c2ccccn2)CC1 [Compound 396, 2-(1-(2-(pyridin-3-yl)propan-2-yl)-4-(2-(thiophen-2-yl)ethyl)piperidin-4-yl)pyridine]",< 10
18,"Cc1ccc(CN2C3CCC2CC(CCc2cccs2)(c2ccccn2)C3)cn1 (stereo not drawn) [Compound 397, 8-((6-methylpyridin-3-yl)methyl)-3-(pyridin-2-yl)-3-(2-(thiophen-2-yl)ethyl)-8-azabicyclo[3.2.1]octane]",> 10
19,"CCOC[C@@]1(CCc2ccc(F)cn2)CCN(C2(c3cnc4c(c3)CCCC4)CC2)C1 [Compound 398, (S)-3-(1-(3-(ethoxymethyl)-3-(2-(5-fluoropyridin-2-yl)ethyl)pyrrolidin-1-yl)cyclopropyl)-5,6,7,8-tetrahydroquinoline]",< 10
